Assay results from patent US20220288002A1, “Composition comprising EPA, MA and leucine for improving muscle function” (N.V. Nutricia, priority 2019, published 2022).

Test system: C2C12 myotubes
Experiment: In vitro puromycin incorporation (muscle protein synthesis) in differentiated C2C12 myotubes stimulated with insulin + leucine, Western blot
Format: cell-based, mouse
Description: C2C12 mouse myoblasts are obtained from the American Type Culture Source Collection (no. CRL-1772). Myoblasts are cultured at 37° C. in an atmosphere of 5% CO2 in grown medium consisting of Dulbecco's modified Eagle's medium (DMEM) supplemented with 10% fetal calf serum and antibiotics. Myotube C2C12 differentiation is induced by withdrawing fetal calf serum from confluent cells and adding 10 μg/ml insulin, 5 μg/ml transferrin and 2% horse serum. 8-days-differentiated C2C12 myotubes are treated with medium containing EPA and/or MA for 16 hours. After a 4-hour starvation period, C2C12 myotubes were treated with insulin (100 nM)+Leucine (5 mM) for in total 60 min. A limitation of growing myotubes in vitro is that the cells are not able to produce insulin when administered leucine whereas in vivo the pancreas starts producing insulin when leucine is administered to a subject. Common to this model, to compensate for this limitation, the in vitro experiment requires the separate administration of insulin. […] By western-Blot analyses the level of protein synthesis was analyzed. This gives quantitative information on the incorporation of puromycin which is a measure for intracellular pathways regulating protein synthesis (Akt, mTOR) and/or a direct measure of protein synthesis. […]

What does the source list for `CCCCCCCCCCCCCC(=O)O` [MA, myristic acid]?
puromycin incorporation, individual fatty acid (25 μM EPA without MA, or 25 or 50 μM MA without EPA, 16 hours, then insulin (100 nM)+Leucine (5 mM) 60 min, relative to control without stimulation and without fatty acids (indexed at 100)): have an effect on puromycin incorporation; puromycin incorporation, effect of raising MA from 25 μM to 50 μM vs adding 25 μM EPA to 25 μM MA (MA without EPA, 25 μM vs 50 μM, insulin + leucine stimulation): much smaller effect
